Reference: ChEMBL document CHEMBL4411318, “Discovery of a Series of 2'-α-Fluoro,2'-β-bromo-ribonucleosides and Their Phosphoramidate Prodrugs as Potent Pan-Genotypic Inhibitors of Hepatitis C Virus” (J Med Chem, 2019)

Key:
[1] = Cytotoxicity against human HuH7 cells assessed reduction in cell viability after 3 to 5 days by MTT assay; assay type: cell-based, Huh-7
[2] = system: PBMC; assay: (§1) Cytotoxicity against human PBMC assessed reduction in cell viability after 5 days by MTT assay; assay type: cell-based; conditions: pbmc, 120 h
[3] = system: CCRF-CEM; assay: (§2) Cytotoxicity against human CCRF-CEM assessed reduction in cell viability after 4 days by MTT assay; assay type: cell-based; conditions: ccrf-cem, 96 h
[4] = target: RNA-directed RNA polymerase (Hepacivirus hominis) (UniProt O39930); conditions: Hepatitis C virus subtype 1b
Chain of RNA-directed RNA polymerase (Hepacivirus hominis) (O39930 1-591): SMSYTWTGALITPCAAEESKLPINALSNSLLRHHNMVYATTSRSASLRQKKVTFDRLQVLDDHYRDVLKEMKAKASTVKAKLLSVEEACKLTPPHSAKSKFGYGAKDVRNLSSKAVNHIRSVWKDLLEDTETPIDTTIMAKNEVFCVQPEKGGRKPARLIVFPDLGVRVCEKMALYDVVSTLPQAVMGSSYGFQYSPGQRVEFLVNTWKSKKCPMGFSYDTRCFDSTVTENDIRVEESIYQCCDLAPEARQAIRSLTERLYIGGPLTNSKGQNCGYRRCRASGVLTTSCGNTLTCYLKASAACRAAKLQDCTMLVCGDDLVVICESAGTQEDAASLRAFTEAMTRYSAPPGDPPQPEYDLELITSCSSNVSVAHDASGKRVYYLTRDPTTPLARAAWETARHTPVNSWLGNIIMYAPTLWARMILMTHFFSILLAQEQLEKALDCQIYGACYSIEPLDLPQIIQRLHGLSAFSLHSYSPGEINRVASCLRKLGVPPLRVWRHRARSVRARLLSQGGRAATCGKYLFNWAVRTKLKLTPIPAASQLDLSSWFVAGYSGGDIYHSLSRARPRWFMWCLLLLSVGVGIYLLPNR
Description: Inhibition of NS5B polymerase in wild type HCV genotype 1b infected in human Huh7 replicon cells after 5 days by RT-PCR assay

[5] = in vitro; conditions: human, liver microsomes
Description: Stability in human liver microsomes assessed as compound remaining in absence of NADPH regenerating system after 60 mins by LC/MS/MS analysis

[6] = system: HepG2; assay: Mitochondrial toxicity in human HepG2 cells assessed as lactic acid production at 50 uM followed by medium plus drugs replenishment every 3 to 4 days for 14 days relative to control; assay type: cell-based; conditions: hepg2, 336 h
[7] = system: cytochrome c oxidase subunit 2 DNA level; assay: Mitochondrial toxicity in human HepG2 cells assessed as inhibition of cytochrome c oxidase subunit 2 DNA level at 12.5 uM followed by medium plus drugs replenishment every 3 to 4 days for 14 days relative to control; assay type: cell-based
[8] = system: Bone marrow cell; assay: Cytotoxicity against human bone marrow cells assessed as inhibition of colony-forming unit-granulocyte after 14 days by FACS analysis; assay type: cell-based; conditions: 336 h
[9] = Drug metabolism in human HuH7 cells assessed as Tmax for NTP formation at 10 uM after 2 to 48 hrs by LC-MS/MS analysis; assay type: ADME, cell-based; conditions: huh-7, 10 µM
[10] = Half life in human intestinal microsomes by LC/MS/MS analysis; assay type: ADME, Intestine, Microsome
[11] = Prodrug activation in Beagle dog liver assessed as assessed as formation of triphosphate form parent nucleoside at 10 mg/kg, po measured at 4 hrs by LC-MS/MS analysis; conditions: in vivo
[12] = Stability in simulated intestinal fluid after 24 hrs by LC/MS/MS analysis; assay type: ADME; conditions: simulated gi fluid
[13] = system: HepG2; assay: Mitochondrial toxicity in human HepG2 cells assessed as lactic acid production at 25 uM followed by medium plus drugs replenishment every 3 to 4 days for 14 days relative to control; assay type: cell-based; conditions: hepg2, 336 h
[14] = system: nuclear ribosomal-DNA level; assay: in vitro; conditions: human, HepG2 cells
[15] = system: cytochrome c oxidase subunit 2 DNA level; assay: Mitochondrial toxicity in human HepG2 cells assessed as inhibition of cytochrome c oxidase subunit 2 DNA level at 50 uM followed by medium plus drugs replenishment every 3 to 4 days for 14 days relative to control; assay type: cell-based
[16] = Mitochondrial toxicity in human HepG2 cells assessed as reduction in cell viability after 14 days in presence of galactose supplemented media by ATP depletion assay; assay type: cell-based
[17] = target: RNA-directed RNA polymerase (Hepacivirus hominis) (UniProt O39930); assay: Inhibition of NS5B polymerase in HCV genotype 1b/4a chimeric replicon infected in human HuH7 replicon cells after 5 days by RT-PCR analysis; assay type: cell-based
[18] = in vitro; conditions: human, liver microsomes; remark: listed apart in the source
Description: Intrinsic clearance in human liver microsomes in presence of NADPH regenerating system by LC/MS/MS analysis

[19] = Mitochondrial toxicity in human HepG2 cells assessed as reduction in cell viability after 3 days in presence of galactose supplemented media by ATP depletion assay; assay type: cell-based
[20] = Mitochondrial toxicity in human HepG2 cells assessed as reduction in cell viability after 14 days in presence of glucose supplemented media by ATP depletion assay; assay type: cell-based
[21] = target: RNA-directed RNA polymerase (Hepacivirus hominis) (UniProt O39930); assay: Inhibition of NS5B polymerase in HCV genotype 1b/5a chimeric replicon infected in human HuH7 replicon cells after 5 days by RT-PCR analysis; assay type: cell-based
[22] = system: HepG2; assay: Mitochondrial toxicity in human HepG2 cells assessed as lactic acid production at 12.5 uM followed by medium plus drugs replenishment every 3 to 4 days for 14 days relative to control; assay type: cell-based; conditions: hepg2, 336 h
[23] = as §1; assay type: cell-based; conditions: PBMC
[24] = in vitro; conditions: human, liver microsomes; remark: listed apart in the source
Description: Half life in human liver microsomes in presence of NADPH regenerating system by LC/MS/MS analysis

[25] = Stability in human plasma assessed as compound remaining at 2 uM after 120 mins by LC/MS/MS analysis; assay type: ADME, cell-free; conditions: read-out: Stability
[26] = Cardiotoxicity against human embryonic stem cell-induced ventricular cardiomyocytes administered on day 7 and measured on day 10 after 30 mins incubation by CellTiter Glo assay; assay type: toxicity, cell-based, Cardiac muscle cell
[27] = as §2; assay type: cell-based; conditions: CCRF-CEM cells
[28] = target: RNA-directed RNA polymerase (Hepacivirus hominis) (UniProt O39930); assay: Inhibition of NS5B polymerase in HCV genotype 2a infected in human HuH7 replicon cells after 5 days by RT-PCR analysis; assay type: cell-based; conditions: Hepatitis C virus subtype 2a
[29] = system: nuclear ribosomal-DNA level; assay: Mitochondrial toxicity in human HepG2 cells assessed as inhibition of nuclear ribosomal-DNA level at 25 uM followed by medium plus drugs replenishment every 3 to 4 days for 14 days relative to control; assay type: cell-based
[30] = Mitochondrial toxicity in human HepG2 cells assessed as reduction in cell viability after 3 days in presence of glucose supplemented media by ATP depletion assay; assay type: cell-based
[31] = system: nuclear ribosomal-DNA level; assay: Mitochondrial toxicity in human HepG2 cells assessed as inhibition of nuclear ribosomal-DNA level at 12.5 uM followed by medium plus drugs replenishment every 3 to 4 days for 14 days relative to control; assay type: cell-based
[32] = Drug uptake in Beagle dog liver at 10 mg/kg, po measured up to 4 hrs by LC-MS/MS analysis; conditions: in vivo, BLD = below limit of detection
[33] = in vitro; conditions: human, liver microsomes; remark: listed apart in the source
Description: Intrinsic clearance in human liver measured from intrinsic clearance in human liver microsomes in presence of NADPH regenerating system by LC/MS/MS analysis

[34] = system: Bone marrow cell; assay: Cytotoxicity against human bone marrow cells assessed as inhibition of burst forming unit-erythroid after 14 days by FACS analysis; assay type: cell-based; conditions: 336 h
[35] = system: nuclear ribosomal-DNA level; assay: Mitochondrial toxicity in human HepG2 cells assessed as inhibition of nuclear ribosomal-DNA level at 50 uM followed by medium plus drugs replenishment every 3 to 4 days for 14 days relative to control; assay type: cell-based
[36] = system: cytochrome c oxidase subunit 2 DNA level; assay: Mitochondrial toxicity in human HepG2 cells assessed as inhibition of cytochrome c oxidase subunit 2 DNA level followed by medium plus drugs replenishment every 3 to 4 days for 14 days relative to control; assay type: cell-based
[37] = Nephrotoxicity in human HK2 cells after 72 hrs by Hoechst 33342/HCS live/dead green dye-based assay; assay type: toxicity, cell-based, HK-2
[38] = Drug metabolism in human primary hepatocytes assessed as Tmax for NTP formation at 10 uM after 2 to 48 hrs by LC-MS/MS analysis; assay type: ADME, cell-based, Hepatocyte
[39] = target: RNA-directed RNA polymerase (Hepacivirus hominis) (UniProt O39930); conditions: genotype 1b/3a
Description: Inhibition of NS5B polymerase in HCV genotype 1b/3a chimeric replicon infected in human HuH7 replicon cells after 5 days by RT-PCR analysis

[40] = Cytotoxicity in human HepaRG cells assessed as reduction in cell viability incubated for 14 days by CellTiter-Glo assay; assay type: cell-based
[41] = system: nuclear ribosomal-DNA level; assay: in vitro; conditions: human, HepG2 cells; remark: listed apart in the source
[42] = system: HepG2; assay: Mitochondrial toxicity in human HepG2 cells 10 uM followed by medium plus drugs replenishment every 3 to 4 days for 14 days relative to control; assay type: cell-based; conditions: hepg2, 336 h
[43] = system: cytochrome c oxidase subunit 2 DNA level; assay: Mitochondrial toxicity in human HepG2 cells assessed as inhibition of cytochrome c oxidase subunit 2 DNA level at 10 uM followed by medium plus drugs replenishment every 3 to 4 days for 14 days relative to control; assay type: cell-based

Row | SMILES | CC50 [1] [µM] | EC90 [4] [µM] | Activity [6] [%] | inhibition at 336 h, 12.5 µM [7] [%] | IC50 at 14 days [14] [µM] | inhibition at 336 h, 50 µM [15] [%] | EC90 [17] [µM] | Activity [22] [%] | CC50 at 120 h [23] [µM] | CC50 at 96 h [27] [µM] | EC90 [28] [µM] | inhibition at 336 h, 12.5 µM [31] [%] | inhibition at 336 h, 50 µM [35] [%] | IC50 at 14 days [36] [µM] | other results
1 | C[C@@]1(O)[C@H](O)[C@@H](CO)O[C@H]1n1ccc(N)nc1=O | > 100 | 9.9 |  |  |  |  |  |  |  |  |  |  |  |  | CC50 [2]: 60 µM; CC50 [3]: 22 µM
2 | CC(C)OC(=O)[C@H](C)N[P@](=O)(OC[C@H]1O[C@@H](n2ccc(=O)[nH]c2=O)[C@@](F)(Br)[C@@H]1O)Oc1ccccc1 (single isomer, unassigned) | > 10 | 0.074 to 0.28 | 220 | 23 | 32 | 58 | 0.13 | 90 | > 100 | > 100 | 0.077 | 11 | 72 |  | remaining at 1 h [5]: 3.7%; IC50 [8]: 76 µM; Tmax [9]: 12 h; half-life [10]: > 2.42 h; Drug metabolism [11]: 20130 ng/mL; Stability [12]: Stable; Activity [13]: 120%; IC50 at 14 days [16]: > 100 µM; microsomal CLint [18]: 70.2 µL/min/mg; IC50 at 3 days [19]: > 100 µM; IC50 at 14 days [20]: > 100 µM; EC90 [21]: 0.083 µM; half-life [24]: 0.328 h; remaining at 2 h, 2 µM [25]: 90%; IC50 at 3 days [26]: > 100 µM; inhibition at 336 h, 25 µM [29]: 39%; IC50 at 3 days [30]: > 100 µM; Drug uptake [32]: Bld; CLint scaled [33]: 63.2 mL/min/kg; IC50 [34]: 72 µM
3 | CC(C)OC(=O)[C@H](C)N[P@](=O)(OC[C@H]1O[C@@H](n2ccc(=O)[nH]c2=O)[C@](C)(F)[C@@H]1O)Oc1ccccc1 [SOFOSBUVIR] | > 100 | 0.15 to 0.9 | 180 | 6.7 | 45 | 44 | 0.15 | 79 | > 100 | > 100 | 0.13 | 3.1 | 58 | > 50 | CC50 at 72 h [37]: > 300 µM; CC50 at 0.5 h [26]: > 100 µM; Tmax [38]: 12 h; EC90 [39]: 0.37 µM; CC50 at 336 h [40]: 44 µM
4 | Nc1ccn([C@H]2CC[C@@H](CO)O2)c(=O)n1 [ZALCITABINE] |  |  |  |  | < 10 |  |  |  |  |  |  |  |  | < 10 | inhibition at 336 h, 10 µM [41]: 50%; Activity [42]: 200%; inhibition at 336 h, 10 µM [43]: 84%
